# Assay results: PMC9885069 (Scientific Reports, 2023)
# “Also recorded” adds a separate entry of the source. Where two headings read alike, the source gives them in different places.
# Experiments:
# [1] = test system: 01SD NPC cultures; assay: Cytotoxicity in uninfected NPC cultures, flow cytometry with fixable viability dye; details: uninfected 01SD NPCs; for cell viability of treated cultures: concentrations up to 50 μM
# [2] = test system: HSV-1; assay type: cell-based; details: 10 μM; for reduction of the percentage of EGFP+-RFP+ cells compared to infected cells exposed to vehicle: MOI 0.1, day 3 p.i.; for anti-HSV-1 activity in NPCs: 01SD and 9001 NPCs, day 3 p.i.
# [3] = test system: HSV-1; assay: microbe, parasite or virus in culture; assay type: cell-based; details: for inhibition of HSV-1 infection (EGFP and RFP reporter expression) in brain organoids: 9001 and 01SD fourteen-week old organoids, 6000 pfu/organoid, compounds 10 μM, ACV 50 μM, day 3 p.i.
# [4] = test system: SARS-CoV-2 (isolate USA WA1/2020); assay: NIH-NIAID in vitro SARS-CoV2 viral replication assay in Calu3 cells; assay type: cell-based; details: for therapeutic selectivity: CC50/IC50 in Calu3 cells
# [5] = Toxicity (cell number) in Calu3 cells in the SARS-CoV-2 assay; assay type: cell-based; details: human, Calu3 (ATCC, HTB-55) cells infected with SARS-CoV-2, 48 h post-infection
# [6] = test system: host cell gene expression in 02SF NPCs; assay: RNA sequencing and Ingenuity Pathway Analysis of uninfected NPCs; assay type: cell-based, human; details: 10 μM
# [7] = test system: eIF2α phosphorylation on serine 51; assay: Immunocytochemistry of eIF2α phosphorylated on serine 51 in NPCs; assay type: cell-based, human; details: 9001 NPCs, 10 μM, 24 h, compared to untreated or 7-treated NPCs
# Experimental: The RNA sequencing data is thus fully consistent with the hypothesis that 2b and 8 trigger a host antiviral response by activating an ISR.
# Figure 8 Activation of the integrated stress response in 2b- and 8-treated NPCs. (A) NPCs derived from 9001 iPSC lines were exposed to compounds 7, 8, and 2b (10 μM). After 24 h, cells were fixed and stained with an antibody that detects eIF2α phosphorylated on Serine 51 (EIF2S1). Nuclei were counterstained with Hoechst 33342, and phosphorylation was assessed by fluorescence microscopy. (B) The corrected total cell fluorescence (CTCF) was obtained by measuring EIF2S1 fluorescence in cells where a fluorescent signal could be detected and normalizing for cellular area using equation CTCF = integrated density − (cellular area × mean fluorescence of background readings). Error bars are standard deviations. One-way analysis of variance (ANOVA) followed by Bonferroni post-hoc test was used to compare CTCF among the different conditions: ** (P = 0.0042); **** (P < 0.0001). (C,D) Up-regulation of the EIF2A kinase EIF2AK3 (C) and the activated transcription factor 4 (ATF4) (D) in 2b- and 8-treated NPCs. Fold-changes were calculated from RNA-seq data described in the methods section. (E) Proposed mechanism of action of 2b and 8.
# [8] = test system: HSV-1; details: cited from earlier work
# [9] = test system: fibroblasts, hepatocytes, iPSC-derived neural progenitor cells; set-up: method as in PMID 30413769; details: cited from earlier work
# [10] = cited from earlier work
# [11] = test system: human brain organoids; assay: Organoid viability, calcein AM assay; assay type: cell-based; set-up: organoid viability: dose or concentration left out as unconfirmed
# Experimental: Sixteen-week old brain organoids were infected as described above and exposed after 2 h to increasing 8 concentration ranging from 0.01 to 50 μM. At day 3 p.i. the IC50 of 8 was determined by measuring the intensity of the fluorescent reporter gene EGFP (whose expression is under the control of promoter of the immediate early HSV-1 gene ICP0) in the infected organoids was investigated. The EGFP expression was used as a proxy for viral gene expression during early stages of HSV-1 acute infection.
# Figure 6 Antiviral efficacy and cytotoxicity of 8 against HSV-1 in human brain organoids. […] The IC50 was estimated by determining the corrected total cell fluorescence (CTCF) obtained by measuring EGFP fluorescence in organoids using ImageJ and normalizing for background using equation CTCF = integrated density − (area of the organoid × mean fluorescence of background readings). (B) Cytotoxicity of 8 without HSV-1 infection was assessed using calcein-AM. The fluorescence of calcein-AM in each organoid was measured and CTCF was determined as described above. […] 9001 and 01SD are printed as plot headings and were read as the test systems (organoid lines), not as substances. […]
# Organoids viability was analyzed using calcein AM assay (BioLegend; catalogue # 425201), according to manufacturer’s instructions. […]
# [12] = test system: HSV-1 strain 17syn+; assay: Mouse ocular model of HSV-1 infection, plaque assay of eye swabs; assay type: in vivo, ND4 Swiss mice
# Experimental: The antiviral efficacy of compound 8 was further investigated and confirmed in an in vivo mouse model. ND4 Swiss mice were infected in the eyes with HSV-1 following light corneal scarification as described in the Materials and Methods section. At the same time that the virus was applied, one group of mice (n = 10) were treated a 50uM solution of compound 8 in DMSO and the other group (n = 10) were treated DMSO (vehicle). The eyes were treated with either vehicle or compound 8 each day for 4 days. The eyes were swabbed daily and infectious virus shedding was assessed by standard plaque assay.
# Figure 9 In vivo antiviral activity. ND4 swiss mice were infected by corneal scarification with 1 × 10^5 pfu of HSV-1 strain 17syn+. Eyes were swabbed daily for 4 days and assayed for infectious virus by standard plaque assay.
# ND4 Swiss mice, 4–6 weeks of age, (Envigo labs) were infected by the ocular route. Mice were anesthetized with isoflurane and the cornea were lightly scarified with a 23 ga. needle. 1 × 10^5 pfu (in 5 µl) of HSV-1 strain 17syn+ was applied to the corneal surface. At the same time, one group of mice (n = 10) were treated with 2 µL of a 50 µM solution of compound 8 in DMSO and the other group (n = 10) were treated with 2 µL DMSO (vehicle), applied to the eyes. The eyes were treated with either vehicle or compound 8 each day for 4 days. In order to assess the effect of compound 8 on the course of the infection, the eyes were swabbed daily with a Dacron swab, and the virus eluted in MEM medium. The swab eluate was assessed for the presence of infectious virus by standard plaque assay on rabbit skin cell monolayers.
smiles,measurement,setting,value
"Nc1nc2c(ncn2COCCO)c(=O)[nH]1 [ACV, acyclovir]",cell viability of treated cultures,[1],comparable
"O=C1N[C@H]2[C@H](O)[C@H](O)[C@@H](O)C[C@@H]2c2cc3c(cc21)OCO3 [Compound 2b, trans-dihydrolycoricidine, reference compound]",reduction of the percentage of EGFP+-RFP+ cells compared to infected cells exposed to vehicle,[2]; 01SD NPCs,8016 fold
same,reduction of the percentage of EGFP+-RFP+ cells compared to infected cells exposed to vehicle,[2]; 9001 NPCs,424 fold
same,inhibition of HSV-1 infection (EGFP and RFP reporter expression) in brain organoids,[3],no expression of EGFP and RFP reporter genes
same,therapeutic selectivity,[4],19
same,CC50 at 48 h,[5],3480 nM
same,expression of activated transcription factor 4 (ATF4) (RNA-seq),[6],Up-regulation
same,expression of the EIF2A kinase EIF2AK3 (RNA-seq),[6],Up-regulation
same,eIF2α ~ P immunoreactivity,[7],increased
same,inhibition of HSV-1 replication,[8]; compared with acyclovir (ACV),more efficaciously than acyclovir
same,HSV-1 reactivation from latency,[8]; ex vivo mouse model,prevents HSV-1 reactivation from latency
same,potency against HSV-1 strains resistant to ACV,[8]; tk- strain and PAAv strain,moderate potency
same,toxicity in comparison to acyclovir,[9]; fibroblasts and hepatocytes,Slightly higher toxicity
same,toxicity in comparison to acyclovir,[9]; iPSC-derived neural progenitor cells (NPCs),lower toxicity
same,concentration from which a reduction in cell viability was observed,[1],≥ 25 µM
O=C1N[C@H]2[C@H](O)[C@H](O)[C@@H](O)CN2c2cc3c(cc21)OCO3 [Compound 4],antiviral activity,[10],totally devoid of antiviral activity
"COc1ccc2c(c1)[C@H]1C[C@H](O)[C@@H](O)[C@@H](O)[C@@H]1NC2=O [Compound 5, (2S,3R,4S,4aR,10bR)-2,3,4-Trihydroxy-9-methoxy-1,3,4,4a,5,10b-hexahydrophenanthridin-6(2H)-one]",anti-HSV-1 activity in NPCs,[2],no anti-HSV-1 activity
"O=C1N[C@H]2[C@H](O)[C@H](O)[C@@H](O)C[C@@H]2c2cc(O)ccc21 [Compound 6, (2S,3R,4S,4aR,10bR)-2,3,4,9-Tetrahydroxy-1,3,4,4a,5,10b-hexahydrophenanthridin-6(2H)-one]",anti-HSV-1 activity in NPCs,[2],no anti-HSV-1 activity
same,inhibition of HSV-1 infection (EGFP and RFP reporter expression) in brain organoids,[3],no anti-HSV-1 activity
"COc1cccc2c1C(=O)N[C@H]1[C@H](O)[C@H](O)[C@@H](O)C[C@H]21 [Compound 7, (2S,3R,4S,4aR,10bR)-2,3,4-Trihydroxy-7-methoxy-1,3,4,4a,5,10b-hexahydrophenanthridin-6(2H)-one]",anti-HSV-1 activity in NPCs,[2],no anti-HSV-1 activity
same,inhibition of HSV-1 infection (EGFP and RFP reporter expression) in brain organoids,[3],no anti-HSV-1 activity
"O=C1N[C@H]2[C@H](O)[C@H](O)[C@@H](O)C[C@@H]2c2cccc(O)c21 [Compound 8, (2S,3R,4S,4aR,10bR)-2,3,4,7-Tetrahydroxy-1,3,4,4a,5,10b-hexahydrophenanthridin-6(2H)-one]",reduction of the percentage of EGFP+-RFP+ cells compared to infected cells exposed to vehicle,[2]; 01SD NPCs,6.76 fold
same,reduction of the percentage of EGFP+-RFP+ cells compared to infected cells exposed to vehicle,[2]; 9001 NPCs,4.65 fold
same,inhibition of HSV-1 infection (EGFP and RFP reporter expression) in brain organoids,[3],no expression of EGFP and RFP reporter genes
same,IC50,"[3]; Human alphaherpesvirus 1, 72 h, read-out: IC50 of HSV-1 infection (EGFP intensity), 01SD organoids, sixteen-week old, day 3 p.i.",209 nM
same,IC50,"[3]; Human alphaherpesvirus 1, 72 h, read-out: IC50 of HSV-1 infection (EGFP intensity), 9001 organoids, sixteen-week old, day 3 p.i.",504 nM
same,IC50,"[3]; Human alphaherpesvirus 1, read-out: IC50 (EGFP CTCF), printed in Figure 6A, 01SD organoids",209 nM
same,IC50,"[3]; Human alphaherpesvirus 1, read-out: IC50 (EGFP CTCF), printed in Figure 6A, 9001 organoids",504 nM
same,organoid viability,[11],No significant reduction
same,organoid viability (calcein AM),"[11]; without HSV-1 infection, concentrations up to 50 μM",No significant reduction; also recorded: No significant differences in cell viability
same,therapeutic selectivity,[4],20
same,CC50 at 48 h,[5],1920 nM
same,expression of activated transcription factor 4 (ATF4) (RNA-seq),[6],Up-regulation
same,expression of the EIF2A kinase EIF2AK3 (RNA-seq),[6],Up-regulation
same,eIF2α ~ P immunoreactivity,[7],increased
same,yield of infectious virus in the tears (HSV-1 shedding) compared to vehicle treated eyes,"[12]; mouse eyes, 50 µM solution in DMSO, daily for 4 days",dramatically reduced; also recorded: dramatically reduces HSV-1 shedding
same,reduction of peak titer of infectious virus,"[12]; mouse eyes, 50 µM solution in DMSO, daily for 4 days, vs vehicle",reduced almost threefold
same,yield of infectious virus in the tears (HSV-1 shedding) compared to vehicle treated eyes,"[12]; mouse eyes, 50 µM solution in DMSO, daily for 4 days, listed as 7-hydroxyl derivative",dramatically reduced HSV-1 shedding
same,delay of peak titer of infectious virus,[12]; vehicle peak at day 2 post-infection,delayed by one day
same,cell viability of treated cultures,[1],comparable
CCC(CC)COC(=O)[C@H](C)N[P@](=O)(OC[C@H]1O[C@@](C#N)(c2ccc3c(N)ncnn23)[C@H](O)[C@@H]1O)Oc1ccccc1 [remdesivir],IC50,"[4]; Severe acute respiratory syndrome coronavirus 2, Calu-3, Calu3 cells, MOI=0.5, 2 h pretreatment, 48 h post-infection, read-out: IC50 (infection, dsRNA+ cells/total cell number)",60 nM
